Key:
Format in all cases: cell-based
[1] = tested on: baseline pathogens of bacterial conjunctivitis patients; assay: MIC of baseline clinical trial isolates, Studies 373, 433, 434 (all species)
CDC coryneform group G = assay: MIC of clinical trial isolates, Studies 373, 433, 434; conditions: N 29
Description: (§1) PFGE testing was performed per standard procedures.
(§2) The antibacterial susceptibility profile of each Visit 1 bacterial isolate was determined for besifloxacin and other antimicrobials.

H. influenzae = assay: as above; conditions: Haemophilus influenzae, all phenotypes, N 344
Description: as §1, §2

S. mitis group = assay: as above; conditions: Streptococcus mitis group, N 45
Description: as §1, §2

S. pneumoniae = assay: as above; conditions: Streptococcus pneumoniae, all phenotypes, N 302
Description: as §1, §2

Streptococcus oralis = assay: as above; conditions: N 18
Description: as §1, §2

S. aureus = assay: as above; conditions: Staphylococcus aureus, all phenotypes, N 190
S. epidermidis = assay: as above; conditions: Staphylococcus epidermidis, all phenotypes, N 111
[2] = tested on: Corynebacterium pseudodiphtheriticum; assay: as above; conditions: N 8
Corynebacterium striatum = assay: as above; conditions: N 8
Staphylococcus hominis = assay: as above; conditions: N 9
[3] = tested on: Staphylococcus lugdunensis; assay: as above; conditions: N 8
Streptococcus mitis = assay: as above; conditions: Streptococcus mitis (listed separately from S. mitis group), N 20
Description: PFGE testing was performed per standard procedures. […] Analysis Populations

Streptococcus salivarius = assay: as above; conditions: N 9

Structure (SMILES) | MIC50 ([1]; All organisms, N 1324) [µg/mL] | MIC90 ([1]; All organisms, N 1324) [µg/mL] | MIC50 ([1]; Gram-negative, N 438) [µg/mL] | MIC90 ([1]; Gram-negative, N 438) [µg/mL] | MIC50 ([1]; Gram-positive, N 886) [µg/mL] | MIC90 ([1]; Gram-positive, N 886) [µg/mL] | MIC50 (CDC coryneform group G) [µg/mL] | MIC90 (CDC coryneform group G) [µg/mL] | MIC50 (H. influenzae) [µg/mL] | MIC90 (H. influenzae) [µg/mL] | MIC50 (S. mitis group) [µg/mL] | MIC90 (S. mitis group) [µg/mL] | MIC Range (S. mitis group) [µg/mL] | MIC50 (S. pneumoniae) [µg/mL] | MIC90 (S. pneumoniae) [µg/mL] | MIC50 (Streptococcus oralis) [µg/mL] | MIC90 (Streptococcus oralis) [µg/mL] | MIC Range (Streptococcus oralis) [µg/mL] | MIC50 (S. aureus) [µg/mL] | MIC90 (S. aureus) [µg/mL] | further results
CC1COc2c(N3CCN(C)CC3)c(F)cc3c(=O)c(C(=O)O)cn1c23 (stereo not shown) [OFLOX] | 0.5 | 2 | 0.03 | 0.25 | 1 | 4 | 0.125 | 2 | 0.03 | 0.06 | 2 | 4 | 0.25 | 1 | 2 | 2 | 4 | 0.125 | 0.5 | >8 | MIC50 (S. epidermidis): 0.5 µg/mL; MIC90 (S. epidermidis): >8 µg/mL; MIC Range (S. epidermidis): 0.25 µg/mL; MIC50 [2]: 1 µg/mL; MIC Range [2]: 0.125 to 2 µg/mL; MIC50 (Corynebacterium striatum): 0.125 µg/mL; MIC50 (Staphylococcus hominis): 0.25 µg/mL; MIC Range (Staphylococcus hominis): 0.25 µg/mL; MIC50 [3]: 1 µg/mL; MIC50 (Streptococcus mitis): 2 µg/mL; MIC90 (Streptococcus mitis): 2 µg/mL; MIC Range (Streptococcus mitis): 1 to 4 µg/mL; MIC50 (Streptococcus salivarius): 2 µg/mL; MIC Range (Streptococcus salivarius): 2 to 4 µg/mL
COc1c(N2CCNC(C)C2)c(F)cc2c(=O)c(C(=O)O)cn(C3CC3)c12 (stereo not shown) [GATI] | 0.125 | 0.5 | 0.015 | 0.25 | 0.25 | 1 | 0.06 | 0.5 | 0.015 | 0.03 | 0.5 | 0.5 | 0.06 to 2 | 0.25 | 0.5 | 0.5 | 1 | 0.03 to 1 | 0.125 | 4 | MIC Range ([1]; Gram-negative, N 438): ≦0.004-8 μg/mL; MIC Range (CDC coryneform group G): 0.03 to 8 µg/mL; MIC Range (H. influenzae): ≦0.004-0.5 μg/mL; MIC Range (S. pneumoniae): 0.125 to 1 µg/mL; MIC50 (S. epidermidis): 0.125 µg/mL; MIC90 (S. epidermidis): 2 µg/mL; MIC50 [2]: 0.5 µg/mL; MIC Range [2]: 0.06 to 0.5 µg/mL; MIC50 (Corynebacterium striatum): 0.03 µg/mL; MIC Range (Corynebacterium striatum): 0.015 to 2 µg/mL; MIC50 (Staphylococcus hominis): 0.125 µg/mL; MIC Range (Staphylococcus hominis): 0.06 to 2 µg/mL; MIC50 [3]: 0.25 µg/mL; MIC Range [3]: 0.25 to 2 µg/mL; MIC50 (Streptococcus mitis): 0.5 µg/mL; MIC90 (Streptococcus mitis): 1 µg/mL; MIC Range (Streptococcus mitis): 0.25 to 1 µg/mL; MIC50 (Streptococcus salivarius): 0.5 µg/mL; MIC Range (Streptococcus salivarius): 0.5 to 2 µg/mL

— patent US8415342B2, “Besifloxacin ophthalmic composition for the treatment or control of infection” (Bausch & Lomb Incorporated, priority 2008, dated 2013)
